Like-named read-outs stand apart in the source and are kept apart here.
Tests used:
[1] = system: caterpillars of the armyworm (Spodoptera frugiperda); test: Spodoptera frugiperda test (SPODFR spray treatment); format: in vivo; conditions: 168 h, read-out: activity in %
Summary of the method: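 Maize leaf discs sprayed with compound diluted in emulsifier-containing water (acetone/DMF solvent, alkylaryl polyglycol ether emulsifier), dried, then infested with armyworm caterpillars. Kill scored after 7 days as % mortality, 100% = all caterpillars dead, 0% = none.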

[2] = system: larvae of the mustard beetle (Phaedon cochleariae); test: Phaedon test (PHAECO spray treatment); format: in vivo; conditions: 168 h, read-out: activity in %
Description: Solvents: 78.0 parts by weight of acetone • • 1.5 parts by weight of dimethylformamide
Emulsifier: 0.5 part by weight of alkylaryl polyglycol ether
An appropriate preparation of active compound is prepared by mixing 1 part by weight of active compound with the stated amounts of solvent and emulsifier and diluting the concentrate with emulsifier-containing water to the desired concentration.
After 7 days, the activity in % is ascertained. Here, 100% means that all of the beetle larvae have been killed; 0% means that no beetle larvae have been killed.

[3] = log P determination by HPLC on reversed-phase columns (EEC Directive 79/831 Annex V.A8); format: physicochemical; conditions: pH 2.7
Summary of the method: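 log P from reversed-phase LC-MS retention at pH 2.7, 0.1% formic acid water/acetonitrile gradient 10–95% acetonitrile. Calibrated against C3–C16 unbranched alkan-2-ones, interpolating linearly between adjacent alkanones.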

[4] = HPLC on reversed-phase columns (C 18), EEC Directive 79/831 Annex V.A8, read-out: logP
[5] = reversed-phase C18 HPLC column, HPLC on reversed-phase columns (C 18), EEC Directive 79/831 Annex V.A8, read-out: logP

Compound | pest or weed control at 100 g/ha ([1]; 100 g/ha, after 7 days) [%] | pest or weed control at 100 g/ha ([2]; 100 g/ha, after 7 days) [%] | chromatographic logP [3] | pest or weed control at 100 g/ha [1] [%] | pest or weed control at 100 g/ha [2] [%] | chromatographic logP [3, 4] | chromatographic logP [3, 5]
Cc1cc(C#N)cc(C(=O)NC(C)(C)C)c1NC(=O)c1cc(Cn2nc3ccc(C(F)(F)F)cc3n2)nn1-c1ncccc1Cl [Example 114] | 100 | 100 | 3.94 |  |  |  | 
Cc1cc(I)cc(C(=O)NC(C)(C)C)c1NC(=O)c1cc(Cn2ncc(C(F)(F)C(F)(F)C(F)(F)F)n2)nn1-c1ncccc1Cl [Example 385] |  |  |  | 100 | 100 | 4.89 | 
CNC(=O)c1cc(Cl)cc(C)c1NC(=O)c1cc(Cn2cc(-c3ccc(F)cc3)nn2)nn1-c1ncccc1Cl [Example 16] | 83 | 100 | 2.84 |  |  |  | 
CNC(=O)c1cc(C#N)cc(C)c1NC(=O)c1cc(Cn2nnc3c(Br)cc(OC(F)(F)F)cc32)nn1-c1ncccc1Cl [Example 99] | 100 | 100 | 3.37 |  |  |  | 
CSC[C@H](C)NC(=O)c1cc(I)cc(C)c1NC(=O)c1cc(Cn2nc(C(F)(F)F)c(C(F)(F)F)n2)nn1-c1ncccc1Cl [Example 388] | 100 | 100 | 4.64 |  |  |  | 
CNC(=O)c1cc(Cl)cc(C)c1NC(=O)c1cc(Cn2nnc3c(Cl)c(Cl)c(Cl)cc32)nn1-c1ncccc1Cl [Example 88] | 100 | 100 | 3.75 |  |  |  | 
Cc1cc(Cl)cc(C(=O)NCC2CC2)c1NC(=O)c1cc(Cn2cc(C(F)(F)F)nn2)nn1-c1ncccc1Cl [Example 195] | 100 | 100 | 3.22 |  |  |  | 
Cc1cc(I)cc(C(=O)NCC2CC2)c1NC(=O)c1cc(Cn2nc(C(F)(F)F)c(C(F)(F)F)n2)nn1-c1ncccc1Cl [Example 401] | 100 | 100 | 4.52 |  |  |  | 
CNC(=O)c1cc(I)cc(C)c1NC(=O)c1cc(Cn2cc(C(F)(C(F)(F)F)C(F)(F)F)nn2)nn1-c1ncccc1Cl [Example 233] | 100 | 100 | 3.59 |  |  |  | 
O=C(NCC1CC1)c1cc(Cl)cc(Cl)c1NC(=O)c1cc(Cn2ncc(C(F)(C(F)(F)F)C(F)(F)F)n2)nn1-c1ncccc1Cl [Example 277] | 100 | 100 |  |  |  |  | 4.23
CNC(=O)c1cc(Cl)cc(C)c1NC(=O)c1cc(Cn2nc3ccc(Br)cc3n2)nn1-c1ncccc1Cl [Example 87] | 100 | 100 | 3.39 |  |  |  | 
Cc1cc(C#N)cc(C(=O)NC(C)(C)C)c1NC(=O)c1cc(Cn2nnc3cc(C(F)(F)F)ccc32)nn1-c1ncccc1Cl [Example 113] | 100 | 100 | 3.5 |  |  |  | 
Cc1cc(C#N)cc(C(=O)NC(C)C)c1NC(=O)c1cc(Cn2nncc2C(F)(F)F)nn1-c1ncccc1Cl [Example 216] | 100 | 100 | 2.63 |  |  |  | 
CNC(=O)c1cc(Cl)cc(C)c1NC(=O)c1cc(Cn2nnc3c(Cl)cc(C(F)(F)F)cc32)nn1-c1ncccc1Cl [Example 89] | 100 | 100 | 3.59 |  |  |  | 
CNC(=O)c1cc(C#N)cc(C)c1NC(=O)c1cc(Cn2nnc3c(Cl)c(Cl)c(Cl)c(Cl)c32)nn1-c1ncccc1Cl [Example 92] | 100 | 100 | 3.79 |  |  |  | 
Cc1cc(C#N)cc(C(=O)NC(C)(C)C)c1NC(=O)c1cc(Cn2ncc(-c3ccccc3Cl)n2)nn1-c1ncccc1Cl [Example 64] | 100 | 100 | 4.03 |  |  |  | 
CNC(=O)c1cc(C#N)cc(C)c1NC(=O)c1cc(Cn2ncc(-c3ccc(Cl)cc3Cl)n2)nn1-c1ncccc1Cl [Example 42] | 100 | 100 | 3.81 |  |  |  | 

Compound | pest or weed control at 100 g/ha ([1]; 100 g/ha, after 7 days) [%] | pest or weed control at 100 g/ha ([2]; 100 g/ha, after 7 days) [%] | chromatographic logP [3] | pest or weed control at 100 g/ha [1] [%] | pest or weed control at 100 g/ha [2] [%] | chromatographic logP [3, 4] | chromatographic logP [3, 5]
Cc1cc(Cl)cc(C(=O)NCC2CC2)c1NC(=O)c1cc(Cn2ncc(C(F)(C(F)(F)F)C(F)(F)F)n2)nn1-c1ncccc1Cl [Example 261] | 100 | 100 |  |  |  |  | 4.34
Cc1cc(C#N)cc(C(=O)NC(C)(C)C)c1NC(=O)c1cc(Cn2cc(-c3cccc(Cl)c3)nn2)nn1-c1ncccc1Cl [Example 57] | 83 | 100 | 3.55 |  |  |  | 
CNC(=O)c1cc(Cl)cc(C)c1NC(=O)c1cc(Cn2cc(-c3cccc(Cl)c3)nn2)nn1-c1ncccc1Cl [Example 20] | 100 | 100 | 3.11 |  |  |  | 
Cc1cc(Cl)cc(C(=O)NCC2CC2)c1NC(=O)c1cc(Cn2ncc(C(F)(F)F)n2)nn1-c1ncccc1Cl [Example 141] | 100 | 100 | 3.55 |  |  |  | 
Cc1cc(I)cc(C(=O)NC(C)(C)C)c1NC(=O)c1cc(Cn2cc(C(F)(F)C(F)(F)C(F)(F)F)nn2)nn1-c1ncccc1Cl [Example 334] |  |  |  | 100 | 100 | 4.42 | 
CC(C)NC(=O)c1cc(Cl)cc(Cl)c1NC(=O)c1cc(Cn2cc(C(F)(C(F)(F)F)C(F)(F)F)nn2)nn1-c1ncccc1Cl [Example 243] | 100 | 100 | 3.79 |  |  |  | 
Cc1cc(I)cc(C(=O)NC(C)C)c1NC(=O)c1cc(Cn2cc(C(F)(F)C(F)(F)C(F)(F)F)nn2)nn1-c1ncccc1Cl [Example 322] |  |  |  | 100 | 100 | 4.07 | 
Cc1cc(I)cc(C(=O)NCC2CC2)c1NC(=O)c1cc(Cn2cc(C(F)(C(F)(F)F)C(F)(F)F)nn2)nn1-c1ncccc1Cl [Example 237] | 100 | 100 |  |  |  |  | 4.14
Cc1cc(I)cc(C(=O)NC(C)(C)C)c1NC(=O)c1cc(Cn2cc(C(F)(C(F)(F)F)C(F)(F)F)nn2)nn1-c1ncccc1Cl [Example 236] | 100 | 100 |  |  |  |  | 4.43
Cc1cc(I)cc(C(=O)NCC2CC2)c1NC(=O)c1cc(Cn2ncc(C(F)(C(F)(F)F)C(F)(F)F)n2)nn1-c1ncccc1Cl [Example 269] | 100 | 100 |  |  |  |  | 4.58
Cc1cc(Cl)cc(C(=O)NC2CCC2)c1NC(=O)c1cc(Cn2ncc(C(F)(F)F)n2)nn1-c1ncccc1Cl [Example 142] | 100 | 100 | 3.64 |  |  |  | 
Cc1cc(Cl)cc(C(=O)NC(C)C)c1NC(=O)c1cc(Cn2cc(C(F)(C(F)(F)F)C(F)(F)F)nn2)nn1-c1ncccc1Cl [Example 227] | 100 | 100 | 3.85 |  |  |  | 
Cc1cc(Cl)cc(C(=O)NC(C)C)c1NC(=O)c1cc(Cn2nccn2)nn1-c1ncccc1Cl [Example 119] | 100 | 100 | 2.5 |  |  |  | 
CNC(=O)c1cc(C#N)cc(C)c1NC(=O)c1cc(Cn2ncc(-c3ccccc3Cl)n2)nn1-c1ncccc1Cl [Example 43] | 100 | 100 | 3.21 |  |  |  | 
Cc1cc(C#N)cc(C(=O)NC(C)C)c1NC(=O)c1cc(Cn2cc(-c3ccc(C(F)(F)F)cc3)nn2)nn1-c1ncccc1Cl [Example 4] | 100 | 100 |  |  |  |  | 3.39
CNC(=O)c1cc(Cl)cc(C)c1NC(=O)c1cc(Cn2nc3ccc([N+](=O)[O-])cc3n2)nn1-c1ncccc1Cl [Example 75] | 100 | 100 | 2.95 |  |  |  | 

— US8536202B2, “Triazole-substituted anthranilamides as pesticides” (Bayer Cropscience AG, priority 2010, dated 2013)
